The values below are quoted from earlier work in patent US20200254013A1, “COMPOSITIONS COMPRISING ALPHA-POLYGLUTAMIC ACID-ZINC FOR TREATING CANCER” (XYLONIX IP HOLDINGS PTE. LTD., priority 2017, published 2020).

Data set [1] has as its system folate receptor (FR), FR-α and FR-β.
Data set [2] deals with murine thymocytes, murine splenic lymphocytes, human Ramos B, and human Jurkat T cells. The settings on record: nanomolar concentrations.
Data set [3] has as its system LNCaP, PC3, DU145 prostate cancer cell lines. To be noted: 1-10 μM.
The conditions of data set [4]: dietary administration 240 ppm, after 9-14 days.

`CN(CC1CNc2nc(N)[nH]c(=O)c2N1C)c1ccc(C(=O)N[C@@H](CCC(=O)O)C(=O)O)cc1` (stereo partly shown) [DMTHF, N^5, N^10-dimethyl tetrahydrofolate]: the “affinity for FR-α versus FR-β” value in data set [1] was “higher affinity for FR-α over FR-β”.
Consider zinc pyrithione, for which the “apoptosis in leukocyte-originating cells” value in data set [2] is listed as “induced zinc-specific apoptosis”. The “ATP-depletion and necrosis in prostate cancer cell lines” value in data set [3] is “elicited ATP-depletion and, eventually, ERK and PKC-dependent necrosis”. The “neurological toxicity in rats” value in data set [4] is “acute neurological toxicity”.
